Laboratory results from paper PMC5881582 (ChemMedChem, 2017).
Where two headings read alike, the source gives them in different places.

Assays:
[1] = tested on: acetylation of α-tubulin (HDAC6 substrate) in SH-SY5Y cells; assay: α-tubulin acetylation by Western blot; format: cell-based, human; conditions: 5 µM, 6 h
[2] = tested on: acetylation of histones H3 and H4 in HT-29 cells; assay: histone H3 and H4 acetylation by Western blot; format: cell-based, human; conditions: HT-29, 5 µM; for time-dependent increase in acetylation of H3 and H4: 24 h
[3] = tested on: acetylation of α-tubulin (HDAC6 substrate) in HT-29 cells; assay: α-tubulin acetylation by Western blot; format: cell-based, human; conditions: HT-29, 5 µM; for acetylation level of α-tubulin: 6 h; for time-dependent increase in acetylation of α-tubulin: 24 h
[4] = tested on: acetylation of histones H3 and H4 in SH-SY5Y cells; assay: histone H3 and H4 acetylation by Western blot; format: cell-based, human; conditions: 5 µM; for acetylation of H3 and H4: 6 h; for time-dependent increase in acetylation of H3 and H4: 24 h
recombinant human HDAC2 = recombinant human HDAC2 (Homo sapiens, UniProt Q92769); assay: competitive fluorescence-based HDAC deacetylase assay, Boc-L-Lys; format: biochemical; conditions: for Selectivity HDAC2/HDAC1: HDAC2 IC50 divided by HDAC1 IC50; for IC50: read-out: IC50 HDAC2, mean ± SD of at least two independent experiments
[5] = target: T1, purified recombinant human HDAC8 (Homo sapiens, UniProt Q9BY41); assay: fluorescence-based HDAC8 assay, commercially available HDAC substrate; format: biochemical; conditions: for Selectivity HDAC8/HDAC1: HDAC8 IC50 divided by HDAC1 IC50; for IC50: read-out: IC50 HDAC8, mean ± SD of at least two independent experiments
T1 sequence (Q9BY41 1-377): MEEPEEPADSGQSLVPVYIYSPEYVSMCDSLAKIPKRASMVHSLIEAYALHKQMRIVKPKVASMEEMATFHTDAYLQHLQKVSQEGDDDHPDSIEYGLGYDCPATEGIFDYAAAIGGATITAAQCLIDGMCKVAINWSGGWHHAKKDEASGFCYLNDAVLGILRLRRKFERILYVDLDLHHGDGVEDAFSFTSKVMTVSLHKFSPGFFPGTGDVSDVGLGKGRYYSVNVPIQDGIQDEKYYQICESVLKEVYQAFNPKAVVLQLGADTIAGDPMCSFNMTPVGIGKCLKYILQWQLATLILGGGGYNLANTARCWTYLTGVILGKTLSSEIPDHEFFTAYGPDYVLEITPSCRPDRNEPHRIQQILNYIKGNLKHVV

recombinant human HDAC3 = recombinant human HDAC3 (Homo sapiens, UniProt O15379); assay: competitive fluorescence-based HDAC deacetylase assay, Boc-L-Lys; format: biochemical; conditions: for Selectivity HDAC3/HDAC1: HDAC3 IC50 divided by HDAC1 IC50; for IC50: read-out: IC50 HDAC3, mean ± SD of at least two independent experiments
SH-SY5Y cells = assay: antiproliferative alamarBlue assay; conditions: n=4
recombinant human HDAC1 = recombinant human HDAC1 (Homo sapiens, UniProt Q13547); assay: competitive fluorescence-based HDAC deacetylase assay, Boc-L-Lys; format: biochemical; conditions: read-out: IC50 HDAC1; mean ± SD of at least two independent experiments
HT-29 cells = assay: antiproliferative alamarBlue assay; conditions: n=4
MCF-7 cells = assay: antiproliferative alamarBlue assay; conditions: 10 µM, NA = no inhibition at 10 µM
microsomal stability [6] = format: in vitro ADME, rat; conditions: after 30 min incubation
microsomal stability [7] = format: in vitro ADME, human; conditions: after 30 min incubation
[8] = plasma and brain concentrations after i.p. dosing; format: in vivo, Spraugue Dawley rats
[9] = read-out: EC50 SH-SY5Y 24 h, 24 h
[10] = read-out: EC50 SH-SY5Y 48 h, 48 h
[11] = read-out: EC50 HT-29 24 h, 24 h
[12] = read-out: EC50 HT-29 48 h, 48 h

Sequence of recombinant human HDAC2 (Q92769 whole entry): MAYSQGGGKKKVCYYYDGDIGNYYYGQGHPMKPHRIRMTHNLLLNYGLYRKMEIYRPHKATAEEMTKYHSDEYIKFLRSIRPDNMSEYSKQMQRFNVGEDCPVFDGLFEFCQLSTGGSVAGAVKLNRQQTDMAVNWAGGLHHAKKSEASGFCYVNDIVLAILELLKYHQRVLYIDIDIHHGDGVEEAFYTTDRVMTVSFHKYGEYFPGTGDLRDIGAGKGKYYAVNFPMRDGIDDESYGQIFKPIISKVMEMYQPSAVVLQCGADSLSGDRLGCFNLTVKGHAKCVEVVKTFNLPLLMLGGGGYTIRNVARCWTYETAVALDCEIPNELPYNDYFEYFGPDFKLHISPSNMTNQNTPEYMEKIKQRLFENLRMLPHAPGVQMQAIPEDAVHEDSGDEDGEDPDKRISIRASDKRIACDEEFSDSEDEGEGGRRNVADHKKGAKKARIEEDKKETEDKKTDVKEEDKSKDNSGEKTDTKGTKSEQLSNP
Sequence of recombinant human HDAC3 (O15379 whole entry): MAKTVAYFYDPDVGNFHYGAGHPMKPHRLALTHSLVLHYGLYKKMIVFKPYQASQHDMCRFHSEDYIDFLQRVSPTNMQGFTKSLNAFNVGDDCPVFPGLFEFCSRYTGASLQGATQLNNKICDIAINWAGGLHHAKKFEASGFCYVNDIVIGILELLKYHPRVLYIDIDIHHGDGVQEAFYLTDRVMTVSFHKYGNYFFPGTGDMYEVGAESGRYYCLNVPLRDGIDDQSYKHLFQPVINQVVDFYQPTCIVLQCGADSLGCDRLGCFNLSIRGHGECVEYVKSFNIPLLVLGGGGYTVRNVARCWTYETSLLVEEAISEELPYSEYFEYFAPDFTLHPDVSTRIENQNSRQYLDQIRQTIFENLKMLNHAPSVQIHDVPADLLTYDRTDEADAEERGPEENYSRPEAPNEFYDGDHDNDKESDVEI
Sequence of recombinant human HDAC3 (Q9Y618 395-489 partner limits assumed): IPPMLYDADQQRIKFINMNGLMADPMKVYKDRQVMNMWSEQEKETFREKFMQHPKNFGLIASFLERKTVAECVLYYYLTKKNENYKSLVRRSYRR
Sequence of recombinant human HDAC1 (Q13547 whole entry): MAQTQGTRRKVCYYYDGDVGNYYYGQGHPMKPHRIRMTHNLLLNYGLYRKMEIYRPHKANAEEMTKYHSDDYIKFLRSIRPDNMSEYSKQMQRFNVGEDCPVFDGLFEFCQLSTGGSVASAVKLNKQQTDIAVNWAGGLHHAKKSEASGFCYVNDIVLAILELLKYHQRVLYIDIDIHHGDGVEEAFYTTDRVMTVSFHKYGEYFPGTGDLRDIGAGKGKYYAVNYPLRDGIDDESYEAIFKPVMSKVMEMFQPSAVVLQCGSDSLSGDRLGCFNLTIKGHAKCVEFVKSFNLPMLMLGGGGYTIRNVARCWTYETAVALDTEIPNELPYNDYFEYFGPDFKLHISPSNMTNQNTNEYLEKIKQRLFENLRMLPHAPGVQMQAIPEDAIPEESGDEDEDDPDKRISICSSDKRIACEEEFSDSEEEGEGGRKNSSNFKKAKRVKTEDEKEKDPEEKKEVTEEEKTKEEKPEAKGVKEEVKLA

Selectivity HDAC2/HDAC1 (recombinant human HDAC2)	IC50 (recombinant human HDAC2) [nM]	Selectivity HDAC8/HDAC1 [5]	IC50 [5] [nM]	Selectivity HDAC3/HDAC1 (recombinant human HDAC3)	IC50 (recombinant human HDAC3) [nM]	EC50 (SH-SY5Y cells; [9]) [nM]	EC50 (SH-SY5Y cells; [10]) [nM]	IC50 (recombinant human HDAC1) [nM]	EC50 (HT-29 cells; [11]) [nM]	EC50 (HT-29 cells; [12]) [nM]	Compound	acetylation of α-tubulin [1]	acetylation level of H3 ([2]; 6 h)	time-dependent increase in acetylation of H3 and H4 [2]	acetylation level of α-tubulin [3]	time-dependent increase in acetylation of α-tubulin [3]	acetylation of H3 and H4 [4]	time-dependent increase in acetylation of H3 and H4 [4]	other results
–	–	–	–	–	–	–	–	–	–	–	O=C(CCCCCCC(=O)Nc1ccccc1)NO [compound 1, SAHA, reference compound]	increased the acetylation of α-tubulin	increased the acetylation level of H3	unable to cause any significant time-dependent increase	increased the acetylation level of α-tubulin	time-dependent increase in acetylation of α-tubulin	acetylation of both H3 and H4 was increased	time-dependent increase in acetylation of H3 and H4 was observed	–
8.2	320 ± 13	8.2	320 ± 26	1.7	68 ± 2	> 50000	1200 ± 220	39 ± 3	> 50000	1100 ± 110	O=C(CCCCCCNCc1ccc2ccccc2c1)NO [compound 2g]	increased the acetylation of α-tubulin	increased the acetylation level of H3	time-dependent increase in acetylation of H3 and H4 was observed	increased the acetylation level of α-tubulin	–	acetylation of both H3 and H4 was increased	time-dependent increase in acetylation of H3 and H4 was observed	acetylation of H4 ([2]; 6 h): significantly increase acetylation of H4
4.2	260 ± 15	10	620 ± 42	0.41	25 ± 2	> 50000	1300 ± 390	61 ± 5.9	> 50000	2100 ± 170	O=C(CCCCCCNCc1cc2ccccc2[nH]1)NO [compound 2j]	increased the acetylation of α-tubulin	increased the acetylation level of H3	time-dependent increase in acetylation of H3 and H4 was observed	increased the acetylation level of α-tubulin	time-dependent increase in acetylation of α-tubulin	acetylation of both H3 and H4 was increased	time-dependent increase in acetylation of H3 and H4 was observed	Growth inhibition percentage MCF-7 24 h (MCF-7 cells): 61%; percent left in RLM (microsomal stability [6]): 85%; percent left in HLM (microsomal stability [7]): 12%; brain concentration fold above IC50 for HDAC1 ([8]; 20 min): 6.7 fold; brain concentration fold above IC50 for HDAC2 ([8]; 20 min): 1.6 fold; brain concentration fold above IC50 for HDAC3 ([8]; 20 min): 16 fold; plasma concentration fold higher than IC50 for HDAC1 ([8]; 20 min): 230 fold; plasma concentration fold higher than IC50 for HDAC2 ([8]; 20 min): 54 fold; plasma concentration fold higher than IC50 for HDAC3 ([8]; 20 min): 560 fold; plasma concentration fold higher than IC50 for HDAC8 ([8]; 20 min): 23 fold; brain concentration fold higher than the IC50 for class I HDACs ([8]; abstract): > 1.6 fold; plasma concentration fold higher than the IC50 for class I HDACs ([8]; abstract): > 23 fold; Plasma level ([8]; rat, 25 mg/kg i.p., 20 min): 3820 ± 2050 ng/mL; molar concentration in brain ([8]; rat, 25 mg/kg i.p., 20 min): 0.41 µM; molar concentration in plasma ([8]; rat, 25 mg/kg i.p., 20 min): 14 µM; rat brain level ([8]; rat, 25 mg/kg i.p., 20 min): 122 ± 21 ng/mL; Plasma level ([8]; rat, 25 mg/kg i.p., 40 min): 2100 ± 720 ng/mL; rat brain level ([8]; rat, 25 mg/kg i.p., 40 min): 107 ± 15 ng/mL
